Numbered stars: 1 amine (or outer) side, 2 acyl side, 3 side chain; on linkers, the order of the positions; unused ones are H or OH. Bridge positions count the residues as written; N and C are the ends. Square brackets hold non-standard residues; d marks the D form. Peptide text beside a SMILES is read from it. * marks the point of attachment. Bip(4'-NHAc) = CC(=O)Nc1ccc(-c2ccc(C[C@H](N)C(=O)O)cc2)cc1; Phe(3-CF3) = N[C@@H](Cc1cccc(C(F)(F)F)c1)C(=O)O; Ala(morpholin-4-yl) = N[C@@H](CN1CCOCC1)C(=O)O; Phe(4-COOH) = N[C@@H](Cc1ccc(C(=O)O)cc1)C(=O)O; X5 = CS(=O)(=O)NC(=O)C[C@H](N[*:1])C(=O)[*:2]; Bip = N[C@@H](Cc1ccc(-c2ccccc2)cc1)C(=O)O; Phe(3-F) = N[C@@H](Cc1cccc(F)c1)C(=O)O; Phe(3-Me) = Cc1cccc(C[C@H](N)C(=O)O)c1; Abu(3S-NH2) = C[C@H](N)[C@H](N)C(=O)O; Cha = N[C@@H](CC1CCCCC1)C(=O)O; Carboxymethyl = O=C(O)C*; NMeA = CN[C@@H](C)C(=O)O; Orn = NCCC[C@H](N)C(=O)O; Dab = NCC[C@H](N)C(=O)O
Assays:
[1] = biological target: T1, PE-labeled human PD-L1-Ig binding to Jurkat cell line over-expressing human PD-1 (Jurkat-PD-1) (Homo sapiens, UniProt Q15116); assay: Jurkat-PD-1 Cell Binding High-Content Screening Assay (CBA): Method 2 (presence and absence of tween-20); conditions: Jurkat-PD-1 cells, PE-labeled PD-L1-Ig 20 nM; presence or absence of tween-20 not given; head μM; read-out: CBA Method 2 μM
T1 construct: expressed in transfected cells; host or cells: Jurkat
Description: Jurkat-PD-1 Cell Binding High-Content Screening Assay (CBA): Method 2
Phycoerythrin (PE) was covalently linked to the Ig epitope tag of human PD-L1-Ig and fluorescently labeled PD-L1-Ig was used for binding studies with a Jurkat cell line over-expressing human PD-1 (Jurkat-PD-1). […] 100 nl of compound was added to cells followed by incubation at 37° C. for 2 hours. To interrogate potential issues with compound aggregation, compounds were tested in the presence and absence of tween-20 detergent. […] Then, 5 μl of PE-labeled PD-L1-Ig (20 nM final), diluted in DMEM supplemented with 10% fetal calf serum. […] Data was collected and processed using a Cell Insight NXT High Content Imager and associated software.

[2] = biological target: T1, PE-labeled human PD-L1-Ig binding to Jurkat cell line over-expressing human PD-1 (Jurkat-PD-1); assay: Jurkat-PD-1 Cell Binding High-Content Screening Assay (CBA): Method 1; conditions: Jurkat-PD-1 cells, PE-labeled PD-L1-Ig; μM; read-out: CBA Method 1 μM

T1 sequence (Q15116 25-288): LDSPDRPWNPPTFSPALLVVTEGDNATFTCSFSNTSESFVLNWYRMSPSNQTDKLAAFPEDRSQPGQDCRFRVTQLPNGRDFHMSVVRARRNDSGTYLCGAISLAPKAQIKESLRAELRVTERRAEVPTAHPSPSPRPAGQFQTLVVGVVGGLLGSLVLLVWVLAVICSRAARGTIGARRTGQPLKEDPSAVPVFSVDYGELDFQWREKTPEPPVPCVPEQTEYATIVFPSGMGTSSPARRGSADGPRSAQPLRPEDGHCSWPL

IC50 [1] [µM]	IC50 [2] [µM]	SMILES
0.0014	0.0016	Cc1cccc(C[C@@H]2NC(=O)[C@H](CC(=O)O)NC(=O)[C@H](Cc3ccc(OCC(=O)O)cc3)NC(=O)[C@H](CN3CCOCC3)NC(=O)CSC[C@@H](C(=O)N[C@@H](CCN)C(N)=O)NC(=O)[C@H](CCCN)NC(=O)[C@H](C(C)C)NC(=O)[C@H](CC3CCCCC3)NC(=O)[C@H](CCN)NC(=O)[C@@H](CC(C)C)NC(=O)[C@H](C)N(C)C(=O)[C@H](Cc3ccc(C(=O)O)cc3)NC(=O)[C@H](Cc3ccc(-c4ccccc4)cc3)NC(=O)[C@H](Cc3ccc(C(=O)O)cc3)NC2=O)c1 [Example 5045] ({CH2CO}-[Ala(morpholin-4-yl)]Y(Carboxymethyl)D[Phe(3-Me)][Phe(4-COOH)][Bip][Phe(4-COOH)][NMeA][dL][Dab][Cha]V[Orn]C[Dab]-NH2; thioether N-14)
0.517	0.514	Cc1cccc(C[C@@H]2NC(=O)[C@H](CC(=O)NS(C)(=O)=O)NC(=O)[C@H](Cc3ccc(OCC(=O)O)cc3)NC(=O)[C@H](CN3CCOCC3)NC(=O)CSC[C@@H](C(=O)N[C@@H](CCN)C(N)=O)NC(=O)[C@H](CCCN)NC(=O)[C@H](C(C)C)NC(=O)[C@H](CC3CCCCC3)NC(=O)[C@H](CCN)NC(=O)[C@@H](CC(C)C)NC(=O)[C@H](C)N(C)C(=O)[C@H](Cc3ccc(C(=O)O)cc3)NC(=O)[C@H](Cc3ccc(-c4ccccc4)cc3)NC(=O)[C@H](Cc3ccc(C(=O)O)cc3)NC2=O)c1 [Example 5046] ({CH2CO}-[Ala(morpholin-4-yl)]Y(Carboxymethyl)[X5][Phe(3-Me)][Phe(4-COOH)][Bip][Phe(4-COOH)][NMeA][dL][Dab][Cha]V[Orn]C[Dab]-NH2; thioether N-14)
0.0041	0.0052	CC(=O)Nc1ccc(-c2ccc(C[C@@H]3NC(=O)[C@H](Cc4cccc(C(F)(F)F)c4)NC(=O)[C@H](CC(=O)O)NC(=O)[C@H](Cc4ccc(C(=O)O)cc4)NC(=O)[C@H](CN4CCOCC4)NC(=O)CSC[C@@H](C(=O)N[C@@H](CCN)C(N)=O)NC(=O)[C@H](CCCN)NC(=O)[C@H](C(C)C)NC(=O)[C@H](CC4CCCCC4)NC(=O)[C@H](CCN)NC(=O)[C@@H](CC(C)C)NC(=O)[C@H](C)N(C)C(=O)[C@H](CCC(N)=O)NC(=O)[C@H](Cc4ccc(-c5ccccc5)cc4)NC3=O)cc2)cc1 [Example 5047] ({CH2CO}-[Ala(morpholin-4-yl)][Phe(4-COOH)]D[Phe(3-CF3)][Bip(4'-NHAc)][Bip]Q[NMeA][dL][Dab][Cha]V[Orn]C[Dab]-NH2; thioether N-14)
0.0044	0.0048	CC(=O)Nc1ccc(-c2ccc(C[C@@H]3NC(=O)[C@H](Cc4cccc(C)c4)NC(=O)[C@H](CC(=O)O)NC(=O)[C@H](Cc4ccc(C(=O)O)cc4)NC(=O)[C@H](CN4CCOCC4)NC(=O)CSC[C@@H](C(=O)N[C@@H](CCN)C(N)=O)NC(=O)[C@H](CCCN)NC(=O)[C@H](C(C)C)NC(=O)[C@H](CC4CCCCC4)NC(=O)[C@H](CCN)NC(=O)[C@@H](CC(C)C)NC(=O)[C@H](C)N(C)C(=O)[C@H](CCC(N)=O)NC(=O)[C@H](Cc4ccc(-c5ccccc5)cc4)NC3=O)cc2)cc1 [Example 5048] ({CH2CO}-[Ala(morpholin-4-yl)][Phe(4-COOH)]D[Phe(3-Me)][Bip(4'-NHAc)][Bip]Q[NMeA][dL][Dab][Cha]V[Orn]C[Dab]-NH2; thioether N-14)
0.007	0.0083	CC(=O)Nc1ccc(-c2ccc(C[C@@H]3NC(=O)[C@H](Cc4cccc(C)c4)NC(=O)[C@H](CC(=O)O)NC(=O)[C@H](Cc4ccc(C(=O)O)cc4)NC(=O)[C@H](CN4CCOCC4)NC(=O)CSC[C@@H](C(=O)N[C@@H](CCN)C(N)=O)NC(=O)[C@H](CCCN)NC(=O)[C@H](C(C)C)NC(=O)[C@H](Cc4cccc(F)c4)NC(=O)[C@H](CCN)NC(=O)[C@@H](CC(C)C)NC(=O)[C@H](C)N(C)C(=O)[C@H](CCC(N)=O)NC(=O)[C@H](Cc4ccc(-c5ccccc5)cc4)NC3=O)cc2)cc1 [Example 5049] ({CH2CO}-[Ala(morpholin-4-yl)][Phe(4-COOH)]D[Phe(3-Me)][Bip(4'-NHAc)][Bip]Q[NMeA][dL][Dab][Phe(3-F)]V[Orn]C[Dab]-NH2; thioether N-14)
0.0021	0.0032	CC(=O)Nc1ccc(-c2ccc(C[C@@H]3NC(=O)[C@H](Cc4cccc(C)c4)NC(=O)[C@H](CC(=O)O)NC(=O)[C@H](Cc4ccc(C(=O)O)cc4)NC(=O)[C@H]([C@H](C)N)NC(=O)CSC[C@@H](C(=O)N[C@@H](CCN)C(N)=O)NC(=O)[C@H](CCCN)NC(=O)[C@H](C(C)C)NC(=O)[C@H](CC4CCCCC4)NC(=O)[C@H](CCN)NC(=O)[C@@H](CC(C)C)NC(=O)[C@H](C)N(C)C(=O)[C@H](CCC(N)=O)NC(=O)[C@H](Cc4ccc(-c5ccccc5)cc4)NC3=O)cc2)cc1 [Example 5051] ({CH2CO}-[Abu(3S-NH2)][Phe(4-COOH)]D[Phe(3-Me)][Bip(4'-NHAc)][Bip]Q[NMeA][dL][Dab][Cha]V[Orn]C[Dab]-NH2; thioether N-14)
0.0084	0.0081	CC(=O)Nc1ccc(-c2ccc(C[C@@H]3NC(=O)[C@H](Cc4cccc(C)c4)NC(=O)[C@H](CC(=O)O)NC(=O)[C@H](Cc4ccc(C(=O)O)cc4)NC(=O)[C@H]([C@H](C)N)NC(=O)CSC[C@@H](C(=O)N[C@@H](CCN)C(N)=O)NC(=O)[C@H](CCCN)NC(=O)[C@H](C(C)C)NC(=O)[C@H](Cc4cccc(F)c4)NC(=O)[C@H](CCN)NC(=O)[C@@H](CC(C)C)NC(=O)[C@H](C)N(C)C(=O)[C@H](CCC(N)=O)NC(=O)[C@H](Cc4ccc(-c5ccccc5)cc4)NC3=O)cc2)cc1 [Example 5052] ({CH2CO}-[Abu(3S-NH2)][Phe(4-COOH)]D[Phe(3-Me)][Bip(4'-NHAc)][Bip]Q[NMeA][dL][Dab][Phe(3-F)]V[Orn]C[Dab]-NH2; thioether N-14)
0.0074	0.009	CC(=O)Nc1ccc(-c2ccc(C[C@@H]3NC(=O)[C@H](Cc4cccc(C(F)(F)F)c4)NC(=O)[C@H](CC(=O)O)NC(=O)[C@H](Cc4ccc(C(=O)O)cc4)NC(=O)[C@H](CC(C)C)NC(=O)CSC[C@@H](C(=O)N[C@@H](CCN)C(N)=O)NC(=O)[C@H](CCCN)NC(=O)[C@H](C(C)C)NC(=O)[C@H](CC4CCCCC4)NC(=O)[C@H](CCN)NC(=O)[C@@H](CC(C)C)NC(=O)[C@H](C)N(C)C(=O)[C@H](CCC(N)=O)NC(=O)[C@H](Cc4ccc(-c5ccccc5)cc4)NC3=O)cc2)cc1 [Example 5053] ({CH2CO}-L[Phe(4-COOH)]D[Phe(3-CF3)][Bip(4'-NHAc)][Bip]Q[NMeA][dL][Dab][Cha]V[Orn]C[Dab]-NH2; thioether N-14)
0.0057	0.0053	CC(=O)Nc1ccc(-c2ccc(C[C@@H]3NC(=O)[C@H](Cc4cccc(C)c4)NC(=O)[C@H](CC(=O)O)NC(=O)[C@H](Cc4ccc(C(=O)O)cc4)NC(=O)[C@H](CC(C)C)NC(=O)CSC[C@@H](C(=O)N[C@@H](CCN)C(N)=O)NC(=O)[C@H](CCCN)NC(=O)[C@H](C(C)C)NC(=O)[C@H](CC4CCCCC4)NC(=O)[C@H](CCN)NC(=O)[C@@H](CC(C)C)NC(=O)[C@H](C)N(C)C(=O)[C@H](CCC(N)=O)NC(=O)[C@H](Cc4ccc(-c5ccccc5)cc4)NC3=O)cc2)cc1 [Example 5054] ({CH2CO}-L[Phe(4-COOH)]D[Phe(3-Me)][Bip(4'-NHAc)][Bip]Q[NMeA][dL][Dab][Cha]V[Orn]C[Dab]-NH2; thioether N-14)
0.0321	0.0385	CC(=O)Nc1ccc(-c2ccc(C[C@@H]3NC(=O)[C@H](Cc4cccc(C)c4)NC(=O)[C@H](CC(=O)O)NC(=O)[C@H](Cc4ccc(C(=O)O)cc4)NC(=O)[C@H](CC(C)C)NC(=O)CSC[C@@H](C(=O)N[C@@H](CCN)C(N)=O)NC(=O)[C@H](CCCN)NC(=O)[C@H](C(C)C)NC(=O)[C@H](Cc4cccc(F)c4)NC(=O)[C@H](CCN)NC(=O)[C@@H](CC(C)C)NC(=O)[C@H](C)N(C)C(=O)[C@H](CCC(N)=O)NC(=O)[C@H](Cc4ccc(-c5ccccc5)cc4)NC3=O)cc2)cc1 [Example 5055] ({CH2CO}-L[Phe(4-COOH)]D[Phe(3-Me)][Bip(4'-NHAc)][Bip]Q[NMeA][dL][Dab][Phe(3-F)]V[Orn]C[Dab]-NH2; thioether N-14)
0.0095	0.01	COC[C@@H]1NC(=O)CSC[C@@H](C(=O)N[C@@H](CCN)C(N)=O)NC(=O)[C@H](CCCN)NC(=O)[C@H](C(C)C)NC(=O)[C@H](CC2CCCCC2)NC(=O)[C@H](CCN)NC(=O)[C@@H](CC(C)C)NC(=O)[C@H](C)N(C)C(=O)[C@H](CCC(N)=O)NC(=O)[C@H](Cc2ccc(-c3ccccc3)cc2)NC(=O)[C@H](Cc2ccc(-c3ccc(NC(C)=O)cc3)cc2)NC(=O)[C@H](Cc2cccc(C)c2)NC(=O)[C@H](CC(=O)O)NC(=O)[C@H](Cc2ccc(OCC(=O)O)cc2)NC1=O [Example 5056] ({CH2CO}-S(Me)Y(Carboxymethyl)D[Phe(3-Me)][Bip(4'-NHAc)][Bip]Q[NMeA][dL][Dab][Cha]V[Orn]C[Dab]-NH2; thioether N-14)

SMILES	IC50 [1] [µM]	IC50 [2] [µM]
CC(=O)Nc1ccc(-c2ccc(C[C@@H]3NC(=O)[C@H](Cc4cccc(C(F)(F)F)c4)NC(=O)[C@H](CC(=O)O)NC(=O)[C@H](Cc4ccc(C(=O)O)cc4)NC(=O)[C@H]([C@H](C)N)NC(=O)CSC[C@@H](C(=O)N[C@@H](CCN)C(N)=O)NC(=O)[C@H](CCCN)NC(=O)[C@H](C(C)C)NC(=O)[C@H](CC4CCCCC4)NC(=O)[C@H](CCN)NC(=O)[C@@H](CC(C)C)NC(=O)[C@H](C)N(C)C(=O)[C@H](CCC(N)=O)NC(=O)[C@H](Cc4ccc(-c5ccccc5)cc4)NC3=O)cc2)cc1 [Example 5050] ({CH2CO}-[Abu(3S-NH2)][Phe(4-COOH)]D[Phe(3-CF3)][Bip(4'-NHAc)][Bip]Q[NMeA][dL][Dab][Cha]V[Orn]C[Dab]-NH2; thioether N-14)	0.0059	0.0065

From patent US20240409585A1, “MACROCYCLIC IMMUNOMODULATORS” (priority 2021, published 2024)
